Test results from patent US20130210887A1, “DENDRIMERS AS NON-VIRAL VEHICLES FOR GENE THERAPY” (UNIVERSIDAD DE CASTILLA LA MANCHA, priority 2010, published 2013).

Tested on: siRNA
Assay: Gel shift (electrophoretic shift in agarose gel) of siRNA by coupling to the dendrimer
Type: binding
Settings: 2 μM siRNA; 30 min incubation at ambient temperature; 1% agarose gel, 15 min at 60V
Excerpt: FIG. 1, relates to the electrophoretic shift analysis of siRNA by the coupling to the compound of general formula (I). The numbers in (A) correspond to different N/P ratios (nitrogenated amines in compound of general formula (0/phosphates in siRNA): (1) 1:0 (siRNA alone), (2) 6:1, (3) 12:1, (4) 24:1, (5) 48:1, (6) 96:1, (7) 192:1 and (8) 384:1. The densitometric analysis of the results of the gel shift experiment are shown in (B).
The compound complexes of general formula (I)-siRNA were formed by mixing equal quantities of volume of the solution that contained compound of general formula (I) and of that containing the siRNA (Org Biomol Chem. 2007. 5: 1886-1893; Pharm Res. 2009. 26: 1181-1191), and incubating the mixture under stirring during 30 minutes at ambient temperature. Both molecules were dissolved in DEPC water (free from RNAses).
The shift in agarose gel was used to ascertain the N/P ratio (nitrogenated amines in compound of general formula (I)/phosphates in siRNA) adapted to obtain the greatest efficacy of bonding possible between both molecules (Mol Biol Rep. 2009. 36: 1083-1093; Am J Med Genet B Neuropsychiatr Genet. 2008. 147B: 769-777). The mixing of different concentrations of compound of general formula (I) and of 250 ng of siRNA was tested. […] The gels were photographed and the bands were quantified with a suitable image analysis system (Quantity One). […]

SMILES: NCCNC(=O)CCN(CCC(=O)NCCN)CCN(CCC(=O)NCCN)Cc1ccc(/C=C/c2cc(/C=C/c3ccc(CN(CCC(=O)NCCN)CCN(CCC(=O)NCCN)CCC(=O)NCCN)cc3)cc(/C=C/c3ccc(CN(CCC(=O)NCCN)CCN(CCC(=O)NCCN)CCC(=O)NCCN)cc3)c2)cc1 [compound of general formula (I)]
- concentration of compound of general formula (I) at which all the siRNA is fixed (P/N ratio of 12:1): 22 µM
